Assay results published in patent US9504674B2, “TrkB agonists and methods of use” (EMORY UNIVERSITY, priority 2010, dated 2016).

How the values were obtained:
[1] = Forced swim test in C57BL/6J mice; format: in vivo, mouse; conditions: 5 mg/kg oral for 21 days, male C57BL/6J mice, immobility in last 4 min of 6 min
Procedure: (§1) Male C57BL/6J mice (8 mice/group) were orally administrated by gavage with 5 mg/kg 4′-DMA-7,8-DHF and 7,8-DHF and vehicle solvent saline for 21 days and subjected to a forced swim test (6 min, immobility recorded in the last 4 min). Data are presented as mean±SEM.
as §1, with “Forced swim test with imidazole flavonoid and compound i. Male” for “Male”, “days,” for “days”
Adult male mice (2-3 months old) were randomly submitted to a forced swim test without a pre-swim. Saline, 4′-DMA-7,8-DHF and 7,8-DHF (5 mg/kg) were orally injected for 21 days. The mice were allowed to adapt to the test room for 2 days. The mice were placed in a clear glass cylinder with a diameter of 16 cm, half-filled with clear water at 24° C.
(§2) Accumulating evidence supports that BDNF plays a role in mediating therapeutic effects of antidepressants. Infusion of exogenous BDNF into hippocampus or brain stem has anti-depressant-like behavioral effect. A forced swim test is broadly used for screening of potential antidepressant drugs and is widely used to measure antidepressant activity. To explore whether 4′-DMA-7,8-DHF and 7,8-DHF have any antidepressant effect like BDNF, a forced swim test was conducted after chronic treatment of the mice for 21 days via oral injection.
(§3) BDNF/TrkB signaling plays an role in mediating antidepressants' therapeutic effects. A forced swim test is broadly used for screening of potential antidepressant drugs and is widely used to measure antidepressant activity. To explore whether imidazole flavanoid and compound i have any antidepressant effect like BDNF, a forced swim test was conducted after chronic treatment of the mice for 21 days via oral administration.

TrkB = target: T1, TrkB (Mus musculus, UniProt P15209); assay: TrkB activation in brain of chronically treated mice (immunoblotting p-TrkB 817, immunohistochemistry p-TrkB Y816); format: in vivo; conditions: for TrkB activation in mouse brain after chronic treatment: 5 mg/kg oral 21 days, brain lysates, immunoblotting p-TrkB 817; for TrkB activation in the dentate gyrus: 5 mg/kg oral, after 21 days treatment, immunohistochemistry
T1 construct: from tissue; host or cells: brain of wild-type C57BL/6J mice
Procedure: Paraffin section were deparaffinized in xylene and rehydrated gradient ethanol solution. Samples were boiled in 10 mM sodium citrate buffer for 20 min for antigen retrieval purpose. Brain sections were incubated with anti-TrkB (BD biosciences, San Jose, Calif.) 1:50, and anti-p-TrkB Y816 was used at 1:300 dilution. Secondary antibody were applied using antirabbit-Alexa 594 (red), antimouse-FITC (green). DAPI (blue) was used for nuclear staining.
(§4) The brain lysates from above chronically treated mice were analyzed by immunoblotting with anti-p-TrkA 794 and p-TrkB 817.
Brain tissues were fixed in 4% paraformaldehyde overnight followed by paraffin embedding. Sections of […] were cut. For immunohistochemical staining, brain sections were deparaffinized in xylene and rehydrated in graded alcohols. Endogenous peroxidase activity was blocked by 3% hydrogen peroxide for 5 minutes and all slides were boiled in 10 mM sodium citrate buffer (pH 6.0) for 10 minutes. Phosphorylated Trk B816 and Trk B were detected using specific antibodies. Paraffin section were deparaffinized in xylene and rehydrated gradient ethanol solution. Samples were boiled in 10 mM sodium citrate buffer for 20 min for antigen retrieval purpose. Brain sections were incubated with anti-TrkB (BD biosciences, San Jose, Calif.) 1:50, p-TrkB 1:300 dilution. Secondary antibodies were applied using anti-rabbit-Alexa 594 (red), anti-mouse-FITC (green). DAPI (blue) was used for nuclear staining
Administration of chronic, but not acute, monoamine antidepressant drugs enhances adult neurogenesis in dentate gyrus of rodents and non-human primates, while blocking neurogenesis by irradiation attenuates the behavioral antidepressant-like effects of these drugs in some rodent strains. […] Ablation of TrkB specifically in hippocampal neural progenitor cells prevents chronic antidepressant-induced neurogenesis and renders the mice behaviorally non-responsive to chronic antidepressant treatment. To test whether increasing TrkB activation by these small agonists would elevate the neurogenesis, adult male C57BL/6J mice were orally injected with either vehicle, 7,8-DHF, or 4′-DMA-7,8-DHF (5 mg/kg) for 21 days. At the end of treatment (day 21), animals were injected with BrdU (50 mg/kg, intraperitoneally) to label dividing cells and were sacrificed 2 h later. BrdU immunohistochemistry was used to assess progenitor proliferation (FIG. 4A). […] Therefore, chronic treatment with TrkB agonists promotes neurogenesis in the hippocampus of mice.
as §2, §3

TrkB F616A = target: T2, TrkB F616A (Mus musculus, UniProt P15209, F616A); assay: Neuroprotection against KA in TrkB F616A knockin mice with or without 1NMPP1; format: in vivo; conditions: for KA-induced caspase-3 activation in TrkB F616A mice: 5 mg/kg oral 4 h before KA 20 mg/kg; for KA-induced caspase-3 activation in TrkB F616A mice / TrkB F616A activation (phosphorylation) in knockin mice: without 1NMPP1; for protective effect against KA in F616A mice after 1NMPP1 pretreatment: 5 mg/kg oral 4 h before KA, 1NMPP1 in drinking water; for TrkB phosphorylation in F616A mice after 1NMPP1 pretreatment / TrkB F616A activation (phosphorylation) in knockin mice: 5 mg/kg oral
T2 construct: from tissue; host or cells: TrkB F616A knock-in mice (brain; whole animal in the forced swim test)
Procedure: 4′-DMA-7,8-DHF and 7,8-DHF suppressed KA-induced caspase-3 activation in TrkB F616A mutant knockin mice, which cannot be blocked by 1NMPP1 (top panel).
TrkB F616A knockin mice (2-3 months old) were fed with 1NMPP1 (25 mM) in drinking water one day before pharmacological reagent treatment. Next day, the mice were orally injected with 7,8-DHF or 4′-DMA-7,8-DHF (5 mg/kg) 4 h before kainic acid (20 mg/kg). The control mice were injected with saline, 1NMPP1, kainic acid alone or administrated 7,8-DHF or 4′-DMA-7,8-DHF 4 h before kainic acid. In 4 days, the mice were sacrificed and brains were homogenated and ultracentrafuged. The supernatant ([…]) was employed for SDS-PAGE and immunoblotting analysis with indicated antibodies, respectively.

TrkA = target: T3, TrkA (Mus musculus, UniProt Q3UFB7); assay: TrkA activation in brain of chronically treated mice (immunoblotting p-TrkA 794); format: in vivo; conditions: 5 mg/kg oral 21 days, brain lysates
T3 construct: from tissue; host or cells: brain of chronically treated C57BL/6J mice
Procedure: as §4, §2, §3

T1 sequence (P15209 32-821): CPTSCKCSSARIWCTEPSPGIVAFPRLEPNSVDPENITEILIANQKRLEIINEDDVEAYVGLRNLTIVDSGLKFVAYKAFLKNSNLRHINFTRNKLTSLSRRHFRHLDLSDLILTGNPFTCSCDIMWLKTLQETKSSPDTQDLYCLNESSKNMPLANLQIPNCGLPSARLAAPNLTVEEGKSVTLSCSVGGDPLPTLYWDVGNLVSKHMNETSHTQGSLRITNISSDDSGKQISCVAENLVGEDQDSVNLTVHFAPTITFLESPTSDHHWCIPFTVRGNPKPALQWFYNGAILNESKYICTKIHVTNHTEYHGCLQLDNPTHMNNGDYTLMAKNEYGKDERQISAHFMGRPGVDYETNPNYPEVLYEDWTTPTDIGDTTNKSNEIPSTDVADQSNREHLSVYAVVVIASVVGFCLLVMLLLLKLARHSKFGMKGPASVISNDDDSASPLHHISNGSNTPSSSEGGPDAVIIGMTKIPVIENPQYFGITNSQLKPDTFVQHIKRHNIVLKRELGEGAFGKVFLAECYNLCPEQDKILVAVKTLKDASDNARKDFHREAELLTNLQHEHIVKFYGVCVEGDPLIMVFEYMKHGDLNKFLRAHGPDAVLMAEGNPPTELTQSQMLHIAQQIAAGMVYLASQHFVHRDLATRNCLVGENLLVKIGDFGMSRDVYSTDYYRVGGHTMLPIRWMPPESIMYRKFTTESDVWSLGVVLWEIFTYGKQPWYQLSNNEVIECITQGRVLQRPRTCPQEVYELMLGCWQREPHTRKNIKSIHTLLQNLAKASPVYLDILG
T3 sequence (Q3UFB7 34-799): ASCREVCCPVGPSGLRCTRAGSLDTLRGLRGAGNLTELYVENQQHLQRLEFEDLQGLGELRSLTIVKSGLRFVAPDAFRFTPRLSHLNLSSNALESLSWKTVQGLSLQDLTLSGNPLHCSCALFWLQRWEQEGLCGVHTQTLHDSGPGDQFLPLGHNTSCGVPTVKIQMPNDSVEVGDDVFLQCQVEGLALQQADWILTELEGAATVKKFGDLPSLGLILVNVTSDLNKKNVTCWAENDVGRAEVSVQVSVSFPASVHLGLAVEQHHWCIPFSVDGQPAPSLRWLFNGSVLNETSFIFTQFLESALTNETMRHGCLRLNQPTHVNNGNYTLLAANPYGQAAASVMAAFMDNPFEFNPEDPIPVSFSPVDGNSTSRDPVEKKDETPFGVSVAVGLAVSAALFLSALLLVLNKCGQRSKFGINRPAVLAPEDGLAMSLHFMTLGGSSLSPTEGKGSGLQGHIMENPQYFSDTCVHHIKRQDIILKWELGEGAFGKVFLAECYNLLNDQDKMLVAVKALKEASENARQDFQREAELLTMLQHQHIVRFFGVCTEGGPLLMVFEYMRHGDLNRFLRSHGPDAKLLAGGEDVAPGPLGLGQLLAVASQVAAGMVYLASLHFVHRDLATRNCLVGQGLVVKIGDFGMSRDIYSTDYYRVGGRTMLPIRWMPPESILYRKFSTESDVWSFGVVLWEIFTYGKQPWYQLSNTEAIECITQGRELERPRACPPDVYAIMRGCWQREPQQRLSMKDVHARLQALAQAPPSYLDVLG
T2 sequence (P15209 32-821 F616A): as the sequence (P15209 32-821) above, with F585A counted along it

SMILES | swimming immobility in forced swim test [1] | TrkB activation in mouse brain after chronic treatment (TrkB) | TrkB activation in the dentate gyrus (TrkB) | KA-induced caspase-3 activation in TrkB F616A mice (TrkB F616A) | protective effect against KA in F616A mice after 1NMPP1 pretreatment (TrkB F616A) | TrkB phosphorylation in F616A mice after 1NMPP1 pretreatment (TrkB F616A) | TrkB F616A activation (phosphorylation) in knockin mice (TrkB F616A) | TrkA activation in mouse brain after chronic treatment (TrkA) | swimming immobility in forced swim test ([1]; listed as imidazole flavanoid) | swimming immobility in forced swim test ([1]; listed as imidazole-derivative) | TrkB activation in mouse brain after chronic treatment (TrkB; listed as imidazole flavanoid) | TrkB activation in mouse brain after chronic treatment (TrkB; listed as imidazole-derivative)
O=c1cc(-c2ccccc2)oc2c(O)c(O)ccc12 [7,8-DHF, 7,8-dihydroxyflavone, reference compound] | significantly decreased | evidently provoked TrkB | markedly activated | markedly diminished | abolished | notably blocked by 1NMPP1 pretreatment | strongly activated | not TrkA activation |  |  |  | 
CN(C)c1ccc(-c2cc(=O)c3ccc4nc[nH]c4c3o2)cc1 [compound m, 8-(4-(dimethylamino)phenyl)chromeno[7,8-d]imidazol-6(1H)-one] |  |  |  |  |  |  |  | not TrkA activation | significantly decreased | more robust antidepressant effect than compound i | evidently provoked TrkB | stronger activity than compound i
CN(C)c1ccc(-c2cc(=O)c3ccc(O)c(O)c3o2)cc1 [4′-DMA-7,8-DHF, 4′-dimethylamino-7,8-dihydroxyflavone] | evidently reduced the immobility | evidently provoked TrkB | markedly activated | markedly diminished | abolished | notably blocked by 1NMPP1 pretreatment | strongly activated | not TrkA activation |  |  |  | 
